Results published in patent publication US11851391B2, “Antifungal compounds and methods of forming the same” (University of Kentucky Research Foundation, priority 2018, dated 2023).
Values after ≈ are worked out from the molar mass of the structure shown. Read-outs that look alike come from different tables or passages of the source.

Experiments:
[1] = system: C. albicans ATCC MYA-2876(S) (strain C); test: MIC determination, in vitro antifungal assay (CLSI M27-A3); assay type: cell-based, Candida albicans; details: Candida albicans, 48 h, MIC-0, 48 h at 35° C., read-out: MIC
Experimental: (§1) The activity of N,N′-diaryl-bishydrazones 7-22 was tested against a panel of seven strains of C. albicans: ATCC 10231(R) (A), ATCC 64124(R) (B), ATCC MYA-2876(S) (C), ATCC 90819(R) (D), ATCC MYA-2310(S) (E), ATCC MYA-1237(R) (F), and ATCC MYA-1003(R) (G). The activity of these bishydrazones 7-22 was also explored against a panel of three non-albicans Candida strains: C. glabrata ATCC 2001 (H), C. krusei ATCC 6258 (I), and C. parapsilosis ATCC 22019 (J). Finally, the activity of these bishydrazones 7-22 was explored against three Aspergillus strains: A. flavus ATCC MYA-3631 (K), A. nidulans ATCC 38163 (L), and A. terreus ATCC MYA-3633 (M).
(§2) Candida albicans ATCC 10231 (A), C. albicans ATCC 64124 (B), and C. albicans ATCC MYA-2876 (C) were kindly provided by Dr. Jon Y. Takemoto (Utah State University, Logan, UT, USA). C. albicans ATCC 90819 (D), C. albicans ATCC MYA-2310 (E), C. albicans ATCC MYA-1237 (F), C. albicans ATCC MYA-1003 (G), Candida glabrata ATCC 2001 (H), Candida krusei ATCC 6258 (I), Candida parapsilosis ATCC 22019 (J), Aspergillus flavus ATCC MYA-3631 (K), and Aspergillus terreus ATCC MYA-3633 (M) were obtained from the American Type Culture Collection (ATCC; Manassas, VA, USA). Aspergillus nidulans ATCC 38163 (L) was received from Dr. Jon S. Thorson (University of Kentucky, Lexington, KY, USA). Filamentous fungi and yeasts were cultivated at 35° C. in RPMI 1640 medium (with 1-glutamine, without sodium biocarbonate, Sigma-Aldrich, St. Louis, MO) buffered to a pH of 7.0 with 0.165 M morpholinepropanesulfonic acid (MOPS) buffer (Sigma-Aldrich).
(§3) A single colony of freshly prepared yeast cells was used to inoculate 5 mL of yeast extract peptone dextrose (YPD) broth prior to incubation overnight with shaking at 200 rpm at 35° C. From the actively growing yeast culture, 100 μL were then transferred to 900 μL of sterile ddH2O and re-adjusted to achieve OD600 of 0.12 (˜1×10^6 CFU/mL). The cell suspension was further diluted to achieve 2-4×10^3 CFU/mL in RPMI 1640 medium. […] The final concentration of DMSO was ensured to be <1.25% in all experiments.

[2] = system: C. albicans ATCC MYA-1003(R) (strain G); test: as above; assay type: cell-based, Candida albicans; details: Candida albicans, 48 h, MIC-0, 48 h at 35° C., read-out: MIC
Experimental: as §1, §2, §3

[3] = system: Aspergillus flavus ATCC MYA-3631 (strain K); test: MIC determination against filamentous fungi (CLSI M38-A2); assay type: cell-based; details: MIC-0, 48 h at 35° C.
Experimental: as §1, §2
(§4) Similarly, the MIC values of compounds 7a-24c, as well as that of the two control drugs against filamentous fungi (strains K-M) were determined as previously described in CLSI document M38-A2. Spores were harvested from sporulating cultures growing on potato dextrose agar (PDA) by filtration through sterile glass wool and enumerated by using a hemocytometer to obtain the desired inoculum size. […] Spore suspensions were added to the wells to afford a final concentration of 5×10^5 CFU/mL. The plates were incubated at 35° C. for 48 h. The MIC values of compounds 7a-24c and CAS against filamentous fungi were based on the complete inhibition of growth when compared to the growth control (MIC-0). […] Each test was performed in triplicate.

[4] = system: Aspergillus nidulans ATCC 38163 (strain L); test: as above; assay type: cell-based; details: MIC-0, 48 h at 35° C.
Experimental: as §1, §2, §4

[5] = system: Aspergillus terreus ATCC MYA-3633 (strain M); test: as above; assay type: cell-based; details: Aspergillus terreus, 48 h, MIC-0, 48 h at 35° C., read-out: MIC
Experimental: as §1, §2, §4

[6] = system: murine red blood cells (mRBCs); details: for Percentage of hemolysis (±SDEV): mouse, 60 min
Experimental: Thus, the hemolytic activity for these bishydrazones was investigated against murine red blood cells (mRBCs).
Murine red blood cells (mRBCs) were prepared by suspending 1 mL of murine blood in 3 mL of PBS prior to centrifugation at 1,000 rpm for 5 min. The mRBCs were washed four times in PBS and resuspended in the same buffer to a final concentration of 10^7 mRBC/mL. […] The tubes were incubated at 37° C. for 60 min. […] Eppendorf tubes containing 200 μL of ddH2O and 2 μL of 1% v/v Triton™ X-100 served as negative (blank) and positive controls, respectively. The percentage of hemolysis was calculated using the following equation: % hemolysis=[(absorbance of sample)−(absorbance of blank)]×100/(absorbance of positive control).

[7] = system: Candida parapsilosis ATCC 22019 (strain J); test: MIC determination, in vitro antifungal assay (CLSI M27-A3); assay type: cell-based; details: strain J, MIC-0, 48 h at 35° C.
Experimental: as §1, §2
as §3, with “The MIC values of compounds 7a-24c against yeast cells (strains A-J) were determined in 96-well plates as described in the CLSI document M27-A3 with minor modifications. A” for “A”, “experiments. The MIC values for compounds 7a-24c and CAS were defined as the minimum drug concentration that yielded complete inhibition (also known as MIC-0).” for “experiments.”

[8] = system: Candida albicans ATCC 10231(R) (strain A); test: as above; assay type: cell-based; details: MIC-0 (no visible growth), 48 h at 35° C.
Experimental: as §1, §2
as §3, with “The MIC values of compounds 7a-24c against yeast cells (strains A-J) were determined in 96-well plates as described in the CLSI document M27-A3 with minor modifications. A” for “A”, “experiments. The MIC values for compounds 7a-24c and CAS were defined as the minimum drug concentration that yielded complete inhibition (also known as MIC-0).” for “experiments.”

[9] = system: Candida krusei ATCC 6258 (strain I); test: as above; assay type: cell-based; details: MIC-0, 48 h at 35° C.
Experimental: as §1, §2, §3

[10] = system: Candida glabrata ATCC 2001 (strain H); test: as above; assay type: cell-based; details: Nakaseomyces glabratus, ATCC2001, 48 h, MIC-0, 48 h at 35° C., read-out: MIC
Experimental: as §1, §2, §3

[11] = system: C. albicans ATCC MYA-1237(R) (strain F); test: as above; assay type: cell-based, Candida albicans; details: Candida albicans, 48 h, MIC-0, 48 h at 35° C., read-out: MIC
Experimental: as §1, §2
as §3, with “The MIC values of compounds 7a-24c against yeast cells (strains A-J) were determined in 96-well plates as described in the CLSI document M27-A3 with minor modifications. A” for “A”, “experiments. The MIC values for compounds 7a-24c and CAS were defined as the minimum drug concentration that yielded complete inhibition (also known as MIC-0).” for “experiments.”

[12] = system: C. albicans ATCC MYA-2310(S) (strain E); test: as above; assay type: cell-based, Candida albicans; details: Candida albicans, 48 h, MIC-0, 48 h at 35° C., read-out: MIC
Experimental: as §1, §2
as §3, with “The MIC values of compounds 7a-24c against yeast cells (strains A-J) were determined in 96-well plates as described in the CLSI document M27-A3 with minor modifications. A” for “A”, “experiments. The MIC values for compounds 7a-24c and CAS were defined as the minimum drug concentration that yielded complete inhibition (also known as MIC-0).” for “experiments.”

[13] = system: C. albicans ATCC 64124(R) (strain B); test: as above; assay type: cell-based, Candida albicans; details: Candida albicans, ATCC64124, 48 h, strain B; MIC-0; 48 h at 35° C.; read-out: MIC
Experimental: as §1, §2
as §3, with “The MIC values of compounds 7a-24c against yeast cells (strains A-J) were determined in 96-well plates as described in the CLSI document M27-A3 with minor modifications. A” for “A”, “experiments. The MIC values for compounds 7a-24c and CAS were defined as the minimum drug concentration that yielded complete inhibition (also known as MIC-0).” for “experiments.”

[14] = system: C. albicans ATCC 90819(R) (strain D); test: as above; assay type: cell-based, Candida albicans; details: Candida albicans, ATCC90819, 48 h, MIC-0, 48 h at 35° C., read-out: MIC
Experimental: as §1, §2
as §3, with “The MIC values of compounds 7a-24c against yeast cells (strains A-J) were determined in 96-well plates as described in the CLSI document M27-A3 with minor modifications. A” for “A”, “experiments. The MIC values for compounds 7a-24c and CAS were defined as the minimum drug concentration that yielded complete inhibition (also known as MIC-0).” for “experiments.”

[15] = system: various yeast strains and filamentous fungi (strains A-M); test: Antifungal activity over the whole panel (summary of MIC data); assay type: cell-based, Candida and Aspergillus strains; details: against all fungal strains tested, with named exceptions; read-out: antifungal activity class based on MIC values
Experimental: as §1
as §3, with “The MIC values of compounds 7a-24c against yeast cells (strains A-J) were determined in 96-well plates as described in the CLSI document M27-A3 with minor modifications. A” for “A”, “experiments. The MIC values for compounds 7a-24c and CAS were defined as the minimum drug concentration that yielded complete inhibition (also known as MIC-0).” for “experiments.”
as §4

[16] = Aspergillus flavus, 48 h, read-out: MIC
[17] = Aspergillus nidulans, ATCC38163, 48 h, read-out: MIC
[18] = Lodderomyces parapsilosis, ATCC22019, 48 h, read-out: MIC
[19] = Candida albicans, ATCC10231, 48 h, read-out: MIC
[20] = Pichia kudriavzevii, ATCC6258, 48 h, read-out: MIC

## C(=N\Nc1ccccc1)/c1ccc(-c2ccc(/C=N/Nc3ccccc3)cc2)cc1 [Compound 7b]
[1]
  MIC: > 31.3 µg/mL
[2]
  MIC: > 31.3 µg/mL
[3]; [16]
  MIC: 1.95 to 3.9 µg/mL (≈ 4.99 to 9.99 µM)
[3]
  MIC: 3.9 µg/mL (≈ 9.99 µM)
[4]; [17]
  MIC: 1.95 to 3.9 µg/mL (≈ 4.99 to 9.99 µM)
[4]
  MIC: 1.95 µg/mL (≈ 4.99 µM)
[5]
  MIC: 15.6 µg/mL (≈ 39.9 µM)
[6]
  hemolytic activity (in words): lack of hemolytic activity
[6]; 0.975 μg/mL
  Percentage of hemolysis (±SDEV): 0.1 ± 0.1%
[6]; 1.95 μg/mL
  Percentage of hemolysis (±SDEV): 3.7 ± 1.6%
[6]; 3.9 μg/mL
  Percentage of hemolysis (±SDEV): 3.4 ± 1.7%
[6]; 7.8 μg/mL
  Percentage of hemolysis (±SDEV): 2.9 ± 1.1%
[6]; 15.6 μg/mL
  Percentage of hemolysis (±SDEV): 14.1 ± 6.0%
[6]; 31.3 μg/mL
  Percentage of hemolysis (±SDEV): 10.8 ± 0.6%
[7]; [18]
  MIC: > 31.3 µg/mL
[8]; [19]
  MIC: 7.8 µg/mL (≈ 20 µM)
[9]; [20]
  MIC: > 31.3 µg/mL
[10]
  MIC: > 31.3 µg/mL
[11]
  MIC: > 31.3 µg/mL
[12]
  MIC: > 31.3 µg/mL
[13]
  MIC: > 31.3 µg/mL
[14]
  MIC: 31.3 µg/mL (≈ 80.2 µM)

## COc1ccccc1N/N=C(\C)c1ccc(-c2ccc(/C(C)=N/Nc3ccccc3OC)cc2)cc1 [Compound 9c]
[1]
  MIC: > 31.3 µg/mL
[2]
  MIC: 31.3 µg/mL (≈ 65.4 µM)
[15]
  MIC: ≥ 31.3 µg/mL
[3]; [16]
  MIC: > 31.3 µg/mL
[4]; [17]
  MIC: > 31.3 µg/mL
[5]
  MIC: > 31.3 µg/mL
[7]; [18]
  MIC: 31.3 µg/mL (≈ 65.4 µM)
[8]; [19]
  MIC: 15.6 µg/mL (≈ 32.6 µM)
[8]
  MIC: 15.6 µg/mL (≈ 32.6 µM)
[9]; [20]
  MIC: 31.3 µg/mL (≈ 65.4 µM)
[10]
  MIC: > 31.3 µg/mL
[11]
  MIC: > 31.3 µg/mL
[12]
  MIC: > 31.3 µg/mL
[13]
  MIC: > 31.3 µg/mL
[14]
  MIC: > 31.3 µg/mL

## Fc1cccc(N/N=C/c2ccc(-c3ccc(/C=N/Nc4cccc(F)c4)cc3)cc2)c1 [Compound 12b]
[1]
  MIC: > 31.3 µg/mL
[2]
  MIC: > 31.3 µg/mL
[3]; [16]
  MIC: 31.3 µg/mL (≈ 73.4 µM)
[4]; [17]
  MIC: > 31.3 µg/mL
[5]
  MIC: > 31.3 µg/mL
[6]
  hemolytic activity (in words): lack of hemolytic activity
[6]; 0.975 μg/mL
  Percentage of hemolysis (±SDEV): 0.8 ± 0.9%
[6]; 1.95 μg/mL
  Percentage of hemolysis (±SDEV): 0%
[6]; 3.9 μg/mL
  Percentage of hemolysis (±SDEV): 3.2 ± 3.0%
[6]; 7.8 μg/mL
  Percentage of hemolysis (±SDEV): 2.6 ± 1.6%
[6]; 15.6 μg/mL
  Percentage of hemolysis (±SDEV): 7.7 ± 3.1%
[6]; 31.3 μg/mL
  Percentage of hemolysis (±SDEV): 10.3 ± 0.2%
[7]; [18]
  MIC: 3.9 µg/mL (≈ 9.14 µM)
[7]
  MIC: 3.9 µg/mL (≈ 9.14 µM)
[8]; [19]
  MIC: 7.8 to 15.6 µg/mL (≈ 18.3 to 36.6 µM)
[8]
  MIC: 7.8 µg/mL (≈ 18.3 µM)
[9]
  MIC: 15.6 µg/mL (≈ 36.6 µM)
[9]; [20]
  MIC: 7.8 to 15.6 µg/mL (≈ 18.3 to 36.6 µM)
[10]
  MIC: > 31.3 µg/mL
[11]
  MIC: > 31.3 µg/mL
[12]
  MIC: > 31.3 µg/mL
[13]
  MIC: > 31.3 µg/mL
[14]
  MIC: > 31.3 µg/mL
